Source: patent US12252457B2, “Compositions and methods for reducing tactile dysfunction, anxiety, and social impairment” (President and Fellows of Harvard College, priority 2018, dated 2025)
Entries after “also recorded” stand apart in the source; their conditions may differ.

System: genetic and environmental mouse models of ASD
Assay: Tactile PPI, air puff response and startle amplitude after acute midazolam or isoguvacine in ASD mouse models
Format: in vivo
Procedure: FIGS. 19A-19N show acute administration of the peripherally-restricted GABAA receptor agonist isoguvacine improves tactile hypersensitivity in five genetic and one environmental model of ASD. […] Two-way ANOVA with post-hoc Sidak's test, *, p<0.05. FIG. 19B: Response to a light air puff stimulus alone in mice following i.p. administration of either saline or 2 mg/kg midazolam treatment. Responses are expressed as percent of startle response to a 125 dB noise. Two-way ANOVA with post-hoc Sidak's test, *, p<0.05. FIG. 19C: Magnitude of startle response to a 125 dB noise in mice following i.p. administration of either saline or 2 mg/kg midazolam treatment. Responses are expressed as percent of startle response to a 125 dB noise. Two-way ANOVA with post-hoc Sidak's test, *, p<0.05. FIG. 19D: Magnitude of startle response to a 125 dB noise in mice following i.p. administration of saline, midazolam (2 mg/kg) or a peripherally-restricted GABAA receptor agonist, isoguvacine (2 mg/kg). Responses are expressed as percent of startle response to a 125 dB noise. Two-way ANOVA with post-hoc Sidak's test, *, p<0.05. FIGS. 19E-19G: Liquid chromatography mass spectrometry (LC-MS) quantified isoguvacine concentrations in cerebrospinal fluid (CSF) (FIG. 19E), blood (FIG. 19F) or liver (FIG. 19G) samples of mice treated with: i.p. saline, i.p. isoguvacine (“Iso.”, 20 mg/kg, samples collected 1, 3 or 24 hours post-injection), intracerebral injection isoguvacine (20 mg/kg, 1 hour post-injection), i.p. diazepam (“DZ”, 20 mg/kg, 1 hour post injection) or intracerebral injection diazepam (20 mg/kg, 1 hour post injection). FIG. 19H: Normalized peak chloride flux through α1β3γ2- and α2β3γ2-containing GABAA receptors in response to isoguvacine application. […] FIGS. 19I-19K: GABAA receptor subunit RNA expression levels across peripheral somatosensory neuron subtypes, for the alpha (FIG. 19I), beta (FIG. 19J), and gamma (FIG. 19K) subunit types. […] Two-way ANOVA with post-hoc Sidak's test, *, p<0.05. FIG. 19M: Response to a light air puff stimulus alone in mice following i.p. administration of either saline or 2 mg/kg isoguvacine treatment. Responses are expressed as percent of startle response to a 125 dB noise. Two-way ANOVA with post-hoc Sidak's test, *, p<0.05. FIG. 19N: Magnitude of startle response to a 125 dB noise in mice following i.p. administration of either saline or 2 mg/kg isoguvacine treatment. Responses are expressed as percent of startle response to a 125 dB noise. Two-way ANOVA with post-hoc Sidak's test, *, p<0.05.
Results of the GABAA receptor restoration experiments raised the possibility that pharmacological treatment with a GABAA receptor agonist may improve tactile reactivity in Mecp2 mutant mice. It was therefore tested whether benzodiazepines, which are positive allosteric modulators (PAMs) of GABAA receptors, would attenuate hairy skin hypersensitivity in Mecp2 mutant mice. Advillin^Cre; Mecp2^f/y mutant mice and their control littermates were administered either vehicle alone or the benzodiazepine midazolam (2 mg/kg, i.p.) in a pseudorandomized manner, and then subjected to tactile PPI. On the following day, treatment regimens were reversed, and tactile PPI was repeated.
While traditional blood-brain barrier (BBB) penetrating benzodiazepines and non-benzodiazepine GABAA receptor PAMs are useful for treating some ASD-related symptoms in patients, including acute anxiety, significant adverse effects including sedation and addictive potential are common (Gudex, 1991). Furthermore, long-term benzodiazepine use is linked to cognitive impairment across multiple domains, including short-term verbal memory and attention (Golombok et al., 1988; Tata et al., 1994), leading to general reluctance within the medical community for prescribing benzodiazepines and other GABAA receptor PAMs to young children (Howes et al., 2018). […]

**Q.** With `O=C(O)C1=CCNCC1` [Isoguvacine, isoguvacine] as the compound, how does the “hairy skin sensitivity (tactile PPI)” value (Advillin^Cre, Gabrb3^f/f mice (homozygous deletion), 2 mg/kg i.p.) read?
**A.** no reduction in hairy skin sensitivity

**Q.** What about the “tactile hypersensitivity (tactile PPI performance and responsivity to air puff)” value (Advillin^Cre, Mecp2^f/y and Advillin^Cre, Gabrb3^f/+ mutant mice, acute 2 mg/kg i.p.) of the same compound?
**A.** significantly reduced tactile hypersensitivity; also recorded: improved tactile hypersensitivity

**Q.** And the hairy skin hypersensitivity (Shank3, Fmr1, and Cntnap2 mutant mice, acute 2 mg/kg i.p.)?
**A.** attenuated hairy skin hypersensitivity

**Q.** What about the hairy skin hypersensitivity (mice exposed to polyinosinic:polycytidylic acid at E12.5 (maternal immune activation model)) of the same compound?
**A.** improvement in hairy skin hypersensitivity
